According to publication PMC8776063, “Aurora Kinase A Is Involved in Controlling the Localization of Aquaporin-2 in Renal Principal Cells” (International Journal of Molecular Sciences, 2022):
pIC50: −log10 of the molar value. Like-named read-outs stand apart in the source and are kept apart here.

Assays:
[1] = target: T1, AURKA (Homo sapiens, UniProt O14965); experiment: Thermal shift assay; type: binding; settings: read-out: ΔTm AURKA
T1 construct: purchased in-house thermal shift (DSF) kinase panel (SGC Frankfurt); Promega NanoBRET for AURKA/B/C
T1 sequence (O14965 122-403): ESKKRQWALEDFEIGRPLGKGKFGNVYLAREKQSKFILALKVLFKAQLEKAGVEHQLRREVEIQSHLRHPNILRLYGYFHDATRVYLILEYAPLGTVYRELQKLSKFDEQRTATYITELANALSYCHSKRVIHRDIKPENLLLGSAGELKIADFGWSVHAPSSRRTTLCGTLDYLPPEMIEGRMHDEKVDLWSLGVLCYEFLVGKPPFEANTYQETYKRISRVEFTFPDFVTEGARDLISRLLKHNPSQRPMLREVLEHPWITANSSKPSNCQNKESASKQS

[2] = target: T2, CAMK1G (Homo sapiens, UniProt Q96NX5); experiment: Thermal shift assay; type: binding; settings: read-out: ΔTm CAMK1G
T2 construct: purchased in-house thermal shift (DSF) kinase panel (SGC Frankfurt); Promega NanoBRET for AURKA/B/C
T2 sequence (Q96NX5 23-277): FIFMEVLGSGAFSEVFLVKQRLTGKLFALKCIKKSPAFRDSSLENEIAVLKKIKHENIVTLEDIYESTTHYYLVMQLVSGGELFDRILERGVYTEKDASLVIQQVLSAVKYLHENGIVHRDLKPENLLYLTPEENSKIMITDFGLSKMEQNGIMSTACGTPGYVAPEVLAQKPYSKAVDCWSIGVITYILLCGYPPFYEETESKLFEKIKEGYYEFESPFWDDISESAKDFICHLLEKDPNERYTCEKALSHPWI

[3] = target: T3, CHEK2 (Homo sapiens, UniProt O96017); experiment: Thermal shift assay; type: binding; settings: read-out: ΔTm CHEK2
T3 construct: purchased in-house thermal shift (DSF) kinase panel (SGC Frankfurt); Promega NanoBRET for AURKA/B/C
T3 sequence (O96017 210-531): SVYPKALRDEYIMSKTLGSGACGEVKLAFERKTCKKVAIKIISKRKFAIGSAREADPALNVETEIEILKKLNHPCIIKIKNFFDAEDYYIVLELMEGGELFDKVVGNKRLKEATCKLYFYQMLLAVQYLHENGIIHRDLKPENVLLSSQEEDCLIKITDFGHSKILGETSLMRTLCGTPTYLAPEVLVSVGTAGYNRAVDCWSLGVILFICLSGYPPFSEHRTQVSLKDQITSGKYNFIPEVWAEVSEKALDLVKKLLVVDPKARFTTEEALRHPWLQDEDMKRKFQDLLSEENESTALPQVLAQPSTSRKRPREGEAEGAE

[4] = target: T4, CLK1 (Homo sapiens, UniProt P49759); experiment: Thermal shift assay; type: binding; settings: read-out: ΔTm CLK1
T4 construct: purchased in-house thermal shift (DSF) kinase panel (SGC Frankfurt); Promega NanoBRET for AURKA/B/C
T4 sequence (P49759 148-484): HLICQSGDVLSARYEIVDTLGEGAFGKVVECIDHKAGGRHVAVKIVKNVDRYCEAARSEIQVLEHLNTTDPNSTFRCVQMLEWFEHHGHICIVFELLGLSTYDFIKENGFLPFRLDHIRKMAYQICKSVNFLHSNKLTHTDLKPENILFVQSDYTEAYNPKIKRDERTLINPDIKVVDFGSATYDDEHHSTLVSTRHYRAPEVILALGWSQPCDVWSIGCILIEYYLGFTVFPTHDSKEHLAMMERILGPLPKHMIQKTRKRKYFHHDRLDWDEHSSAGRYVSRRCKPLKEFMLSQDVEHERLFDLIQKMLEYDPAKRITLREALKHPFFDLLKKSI

[5] = target: T5, EPHA2 (Homo sapiens, UniProt P29317); experiment: Thermal shift assay; type: binding; settings: read-out: ΔTm EPHA2
T5 construct: purchased in-house thermal shift (DSF) kinase panel (SGC Frankfurt); Promega NanoBRET for AURKA/B/C
T5 sequence (P29317 596-900): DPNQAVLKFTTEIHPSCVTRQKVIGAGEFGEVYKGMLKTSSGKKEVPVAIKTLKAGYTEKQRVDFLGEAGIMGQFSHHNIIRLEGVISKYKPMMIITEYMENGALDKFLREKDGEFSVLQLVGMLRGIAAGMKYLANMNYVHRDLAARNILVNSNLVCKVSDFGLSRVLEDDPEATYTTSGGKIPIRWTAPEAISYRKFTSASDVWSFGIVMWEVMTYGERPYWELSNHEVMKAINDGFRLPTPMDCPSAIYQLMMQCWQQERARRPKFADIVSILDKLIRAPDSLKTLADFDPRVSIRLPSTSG

[6] = target: T6, GAK (Homo sapiens, UniProt O14976); experiment: Thermal shift assay; type: binding; settings: read-out: ΔTm GAK
T6 construct: purchased in-house thermal shift (DSF) kinase panel (SGC Frankfurt); Promega NanoBRET for AURKA/B/C
T6 sequence (O14976 14-351): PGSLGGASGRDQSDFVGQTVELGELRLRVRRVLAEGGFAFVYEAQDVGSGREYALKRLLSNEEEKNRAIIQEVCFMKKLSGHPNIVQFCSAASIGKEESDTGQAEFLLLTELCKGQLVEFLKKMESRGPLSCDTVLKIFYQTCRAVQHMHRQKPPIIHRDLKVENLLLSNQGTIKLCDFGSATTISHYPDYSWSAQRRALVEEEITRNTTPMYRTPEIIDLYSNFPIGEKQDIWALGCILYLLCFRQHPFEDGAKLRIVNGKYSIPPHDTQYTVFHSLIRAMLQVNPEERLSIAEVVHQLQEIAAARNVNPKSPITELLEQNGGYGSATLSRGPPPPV

[7] = target: T7, GSG2 (Homo sapiens, UniProt Q8TF76); experiment: Thermal shift assay; type: binding; settings: read-out: ΔTm GSG2
T7 construct: purchased in-house thermal shift (DSF) kinase panel (SGC Frankfurt); Promega NanoBRET for AURKA/B/C
T7 sequence (Q8TF76 465-798): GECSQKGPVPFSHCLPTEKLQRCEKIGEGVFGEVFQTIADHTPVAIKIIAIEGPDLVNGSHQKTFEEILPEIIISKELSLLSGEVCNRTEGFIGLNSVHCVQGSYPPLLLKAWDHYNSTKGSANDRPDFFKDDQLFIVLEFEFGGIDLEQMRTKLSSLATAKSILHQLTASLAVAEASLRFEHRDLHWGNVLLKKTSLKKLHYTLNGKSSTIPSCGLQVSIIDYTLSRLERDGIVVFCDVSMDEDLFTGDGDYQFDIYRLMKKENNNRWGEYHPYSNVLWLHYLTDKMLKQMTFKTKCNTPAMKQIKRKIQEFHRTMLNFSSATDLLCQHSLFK

[8] = target: T8, MAPK1 (Homo sapiens, UniProt P28482); experiment: Thermal shift assay; type: binding; settings: compound 10 µM; n = 3
T8 construct: purchased in-house thermal shift (DSF) kinase panel (SGC Frankfurt); Promega NanoBRET for AURKA/B/C
T8 sequence (P28482 whole entry): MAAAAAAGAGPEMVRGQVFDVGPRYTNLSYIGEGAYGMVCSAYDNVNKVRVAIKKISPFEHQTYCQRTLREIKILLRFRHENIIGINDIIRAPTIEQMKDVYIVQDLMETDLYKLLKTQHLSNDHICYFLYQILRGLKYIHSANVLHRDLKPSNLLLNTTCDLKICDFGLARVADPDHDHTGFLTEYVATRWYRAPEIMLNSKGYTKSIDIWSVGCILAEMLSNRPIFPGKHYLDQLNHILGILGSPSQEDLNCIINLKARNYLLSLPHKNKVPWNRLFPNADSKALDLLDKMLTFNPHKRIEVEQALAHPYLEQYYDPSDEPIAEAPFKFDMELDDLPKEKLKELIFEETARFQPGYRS

[9] = target: T9, PAK4 (Homo sapiens, UniProt O96013); experiment: Thermal shift assay; type: binding; settings: read-out: ΔTm PAK4
T9 construct: purchased in-house thermal shift (DSF) kinase panel (SGC Frankfurt); Promega NanoBRET for AURKA/B/C
T9 sequence (O96013 291-591): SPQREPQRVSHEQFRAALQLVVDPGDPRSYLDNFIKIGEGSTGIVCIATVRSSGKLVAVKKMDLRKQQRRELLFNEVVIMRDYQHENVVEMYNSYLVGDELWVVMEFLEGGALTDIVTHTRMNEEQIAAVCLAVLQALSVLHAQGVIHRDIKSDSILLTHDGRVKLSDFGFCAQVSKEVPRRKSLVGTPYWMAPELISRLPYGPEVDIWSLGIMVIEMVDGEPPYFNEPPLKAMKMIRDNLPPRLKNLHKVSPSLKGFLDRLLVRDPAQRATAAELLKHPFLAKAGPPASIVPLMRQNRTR

[10] = target: T10, ULK3 (Homo sapiens, UniProt Q6PHR2); experiment: Thermal shift assay; type: binding; settings: read-out: ΔTm ULK3
T10 construct: purchased in-house thermal shift (DSF) kinase panel (SGC Frankfurt); Promega NanoBRET for AURKA/B/C
T10 sequence (Q6PHR2 1-277): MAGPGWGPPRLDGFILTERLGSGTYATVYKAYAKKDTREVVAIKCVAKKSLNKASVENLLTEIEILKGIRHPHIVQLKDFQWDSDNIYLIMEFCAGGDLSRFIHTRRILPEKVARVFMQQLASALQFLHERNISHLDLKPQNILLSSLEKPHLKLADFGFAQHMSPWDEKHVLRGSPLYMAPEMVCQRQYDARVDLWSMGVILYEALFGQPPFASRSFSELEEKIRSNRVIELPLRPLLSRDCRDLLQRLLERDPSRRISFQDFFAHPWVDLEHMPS

[11] = tested on: MCD4 cells; experiment: MTS assay (cell viability); type: cell-based, mouse; settings: 30 µM, 10 µM or 1 µM, 1 h; compared to untreated cells
[12] = tested on: MCD4 cells; experiment: F-actin stress fiber staining (phalloidin); type: cell-based, mouse; settings: compound 30 µM, 1 h
[13] = target: AURKB (Homo sapiens, UniProt Q96GD4); experiment: NanoBRET assay in HEK293T cells; type: cell-based; design: full-length wild-type AURKA, AURKB, and AURKC were obtained as plasmids cloned in frame with a C-terminal NanoLuc-fusion; host or cells: HEK293T
AURKB, sequence (Q96GD4 whole entry, the tested form may be a part): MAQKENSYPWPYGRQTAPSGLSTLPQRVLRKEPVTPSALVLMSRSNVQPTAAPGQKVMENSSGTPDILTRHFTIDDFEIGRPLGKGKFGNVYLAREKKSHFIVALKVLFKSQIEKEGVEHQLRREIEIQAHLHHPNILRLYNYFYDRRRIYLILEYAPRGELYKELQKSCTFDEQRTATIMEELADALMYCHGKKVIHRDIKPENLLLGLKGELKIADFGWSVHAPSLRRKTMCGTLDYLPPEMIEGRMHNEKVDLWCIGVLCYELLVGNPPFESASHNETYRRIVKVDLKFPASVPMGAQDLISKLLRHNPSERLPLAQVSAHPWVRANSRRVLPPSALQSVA

[14] = NanoBRET, HEK293T cells overexpressing the kinase, Table 2, read-out: AURKB IC50
[15] = NanoBRET, n = 2, mean, Figure 6B, read-out: affinity to intracellular AURKB

For `CCN1CCN(C(=O)Cc2ccc(Nc3ncc(F)c(Nc4ccc(C(=O)Nc5ccccc5Cl)cc4)n3)cc2)CC1` [Aurora-A inhibitor I, reference compound], the ΔTm at 10 µM [1] was 15.2 °C, the ΔTm at 10 µM [2] was 1.1 °C and the ΔTm at 10 µM [3] was 2.2 °C. For the same compound, the ΔTm at 10 µM [4] was 1.5 °C, the ΔTm at 10 µM [5] was 1.4 °C and the ΔTm at 10 µM [6] was 5 °C. It also gave a ΔTm at 10 µM [7] of 0 °C, a ΔTm at 10 µM [8] of 0.4 °C and a ΔTm at 10 µM [9] of 0.8 °C. For the same compound, the ΔTm at 10 µM [10] was 7.6 °C, the “viability of MCD4 cells” value [11] was “did not elicit any significant effects” and the “effect on actin stress fibers” value [12] was “depolymerization of actin stress fibers”. For the same compound, the pIC50 [13] was under 4.30.
In the case of `O=C(Cc1ccc(Nc2ncc(F)c(Nc3ccc(C(=O)Nc4ccccc4Cl)cc3)n2)cc1)NCCN1CCOCC1` [ERJ2-04], the ΔTm at 10 µM ([1]; compound 10 µM, n = 3) was 13 °C, the ΔTm at 10 µM ([2]; compound 10 µM, n = 3) was 0.4 °C and the ΔTm at 10 µM ([3]; compound 10 µM, n = 3) was 1.2 °C. For the same compound, the ΔTm at 10 µM ([4]; compound 10 µM, n = 3) was 0.4 °C, the ΔTm at 10 µM ([5]; compound 10 µM, n = 3) was 0.3 °C and the ΔTm at 10 µM ([6]; compound 10 µM, n = 3) was 4.5 °C. The ΔTm at 10 µM ([7]; compound 10 µM, n = 3) was 0 °C, the ΔTm at 10 µM [8] was 0.3 °C and the ΔTm at 10 µM ([9]; compound 10 µM, n = 3) was 0.3 °C. The ΔTm at 10 µM ([10]; compound 10 µM, n = 3) was 6.2 °C, the “viability of MCD4 cells” value [11] was “reduced by 10 or 30 µM” and the “effect on actin stress fibers” value [12] was “Comparable effects”. The pIC50 [13, 14] was under 4.30.
`NC(=O)Cc1ccc(Nc2ncc(F)c(Nc3ccc(C(=O)Nc4ccccc4Cl)cc3)n2)cc1` [ERJ2-06] showed a ΔTm at 10 µM ([1]; compound 10 µM, n = 3) of 15.5 °C, a ΔTm at 10 µM ([2]; compound 10 µM, n = 3) of 1.2 °C and a ΔTm at 10 µM ([3]; compound 10 µM, n = 3) of 3.5 °C. It also gave a ΔTm at 10 µM ([4]; compound 10 µM, n = 3) of 1.7 °C, a ΔTm at 10 µM ([5]; compound 10 µM, n = 3) of 0.8 °C and a ΔTm at 10 µM ([6]; compound 10 µM, n = 3) of 5.1 °C. It also gave a ΔTm at 10 µM ([7]; compound 10 µM, n = 3) of 0.2 °C, a ΔTm at 10 µM [8] of 0.1 °C and a ΔTm at 10 µM ([9]; compound 10 µM, n = 3) of 0.3 °C. The ΔTm at 10 µM ([10]; compound 10 µM, n = 3) was 9.4 °C, the “viability of MCD4 cells” value [11] was “did not elicit any significant effects” and the “effect on actin stress fibers” value [12] was “Comparable effects”. For the same compound, the pIC50 [13, 15] was 4.87.
With `CCN1CCN(C(=O)Cc2ccc(Nc3ncc(F)c(Nc4ccc(C(=O)Nc5ccccc5)cc4)n3)cc2)CC1` [ERJ2-11] the ΔTm at 10 µM ([1]; compound 10 µM, n = 3) was 13.8 °C, the ΔTm at 10 µM ([2]; compound 10 µM, n = 3) was 1.2 °C and the ΔTm at 10 µM ([3]; compound 10 µM, n = 3) was 3.6 °C. The ΔTm at 10 µM ([4]; compound 10 µM, n = 3) was 1.5 °C, the ΔTm at 10 µM ([5]; compound 10 µM, n = 3) was 1.8 °C and the ΔTm at 10 µM ([6]; compound 10 µM, n = 3) was 4.9 °C. The ΔTm at 10 µM ([7]; compound 10 µM, n = 3) was 0 °C, the ΔTm at 10 µM [8] was -0.1 °C and the ΔTm at 10 µM ([9]; compound 10 µM, n = 3) was 1.1 °C. The ΔTm at 10 µM ([10]; compound 10 µM, n = 3) was 9.8 °C, the “viability of MCD4 cells” value [11] was “reduced by 10 or 30 µM” and the “effect on actin stress fibers” value [12] was “promoted or maintained the formation of actin stress fibers”. The pIC50 [13, 15] was 4.37.
`CCN1CCN(C(=O)Cc2ccc(Nc3ncc(F)c(Nc4ccc(C(=O)O)cc4)n3)cc2)CC1` [ERJ2-12] gave a ΔTm at 10 µM ([1]; compound 10 µM, n = 3) of 9.5 °C, a ΔTm at 10 µM ([2]; compound 10 µM, n = 3) of 0.2 °C and a ΔTm at 10 µM ([3]; compound 10 µM, n = 3) of 0.3 °C. The ΔTm at 10 µM ([4]; compound 10 µM, n = 3) was 0.5 °C, the ΔTm at 10 µM ([5]; compound 10 µM, n = 3) was 1.6 °C and the ΔTm at 10 µM ([6]; compound 10 µM, n = 3) was 2.7 °C. The ΔTm at 10 µM ([7]; compound 10 µM, n = 3) was 0 °C, the ΔTm at 10 µM [8] was -0.1 °C and the ΔTm at 10 µM ([9]; compound 10 µM, n = 3) was 0.1 °C. The ΔTm at 10 µM ([10]; compound 10 µM, n = 3) was 4.3 °C, the “viability of MCD4 cells” value [11] was “does not affect” and the “effect on actin stress fibers” value [12] was “resembled those of the control cells”. It also gave a pIC50 [13, 14] of under 4.30.
